Patent US12016906B2, “Pharmaceutical composition for anaemia” (Frimline Private Limited, priority 2018, dated 2024)

Experiments:
Assay type in all cases: in vivo, male Wistar rats (Rat Rattus)
[1] = tested on: Iron deficient Diet (IDD) induced anaemia in rats; experiment: Ferroportin level in IDD induced anaemia in rats; parameters: Ferroportin % Change compared to Disease control: concentration or dose not given beside the values; settings: for Ferroportin Post-treatment: Day 98, after 9 weeks of treatment p.o.; for Ferroportin Post-treatment / Ferroportin % Change compared to Disease control: IDD rats; for Ferroportin % Change compared to Disease control: Day 98
Protocol: (§1) Screening of pharmaceutical composition/formulation comprising combination of Lactoferrin+Guanosine Nucleotide or a pharmaceutically acceptable salt thereof with or without optional ingredients against Iron deficient Diet (IDD) induced anaemia in rats. For this study different parameters like Hb Level, Hematocrit level, Serum Iron level, Ferroportin level, Serum Ferritin level, Hepcidin level and IL-6 Level were evaluated. The following trials were carried out by taking reference from Wang Xl, Liu S, Xu H, Yan W, Effects of recombinant human lactoferrin on improving the iron status of IDA. Wei Sheng Yan Jiu. 2012 January; 41(1):13-7, 22 and Nora M. El-Sheikh, the Protective Effect of Soybean and Thyme on Iron Deficiency Anemia in Rats, the Egyptian Journal of Hospital Medicine (2008) Vol., 33: 510-520 as available.
(§2) 72 male Wistar rats (Rat Rattus) (6 per group) were maintained in animal house in a light/dark atmosphere based on a 12 hour cycle having temperature and relative humidity in the range of 22±3° C. and 30-70% respectively. To maintain the appropriate conditions, temperature and relative humidity were recorded three times daily. All animals were acclimatized for a minimum period of five days. Animals were maintained in the test setup for minimum 30 minutes once during the acclimatization period to reduce the stress. Animals were weighed on the day of receipt and observed daily for abnormalities if any. Detailed records of acclimatization were also maintained. Rats were housed 6 per cage in clean, sterilized Polypropylene cages. During complete experiment, animals were supplied with the standard certified rat pellet feed (manufactured by Keval sales corporation, Vadodara) and drinking water treated by the reverse osmosis ad libitum. Analysis reports for microbial load and contaminants in feed and water and nutrient content of feed were also retained.
(§3) In order to evaluate the activity against IDD induced anaemia, seventy two (72) rats were screened and divided in to twelve groups. For a comparative analysis, groups were divided as normal control (Group 1), disease control (Group 2), treatment groups with individual components (Group 3, Group 4, Group 5, Group 6 and Group 7 as Lactoferrin, Disodium Guanosine monophosphate (GMP), Guanosine diphosphate (GDP), Guanosine triphosphate (GTP) and Vitamin C respectively), test composition/formulation of the present invention (Group 8 as combination of Lactoferrin Disodium GMP, Group 9 as combination of Lactoferrin GDP, Group 10 as combination of Lactoferrin+GTP, […] as combination of Lactoferrin+Disodium GMP+Vitamin C) and reference standard drug (Group 12). Table 1 provides the details of the various groups and treatments conducted in the trial wherein group no. G3 to G12 are treatment groups.
(§4) Group nos. 2 to 12 animals under consideration were administered IDD (3 mg Fe/Kg of diet) for the period of 3 weeks, while group 1 animal received Normal pellet diet (35 mg Fe/Kg of diet).
(§5) After 5 weeks (35 days) of respective dietary intervention, once again hemoglobin level, HCT % level and serum iron level were analyzed and then, respective drug treatment was started with continuous administration of Iron deficient diets in all groups as mentioned above in Table 1.
(§6) After 9 weeks of respective drug treatment (total after 14 weeks from start of the study—98 days), various biochemical parameters were measured to evaluate the effect of respective individual and combination therapy on iron deficient anaemia model (G3 to G12).
(§7) • A. Clinical observations (Daily) • B. Mortality (Daily) • C. […]

[2] = tested on: Iron deficient Diet (IDD) induced anaemia in rats; experiment: Serum ferritin level in IDD induced anaemia in rats; parameters: Ferritin % Change compared to Disease control: concentration or dose not given beside the values; settings: for Ferritin Post-treatment: Day 98, after 9 weeks of treatment p.o.; for Ferritin Post-treatment / Ferritin % Change compared to Disease control: IDD rats; for Ferritin % Change compared to Disease control: Day 98
Protocol: as §1, §2, §3, §4, §5, §6, §7

[3] = tested on: Iron deficient Diet (IDD) induced anaemia in rats; experiment: Hepcidin level in IDD induced anaemia in rats; parameters: Hepcidin % Change compared to Disease control: concentration or dose not given beside the values; settings: for Hepcidin Post-treatment: Day 98, after 9 weeks of treatment p.o.; for Hepcidin Post-treatment / Hepcidin % Change compared to Disease control: IDD rats; for Hepcidin % Change compared to Disease control: Day 98
Protocol: as §1, §2, §3, §4, §5, §6, §7

[4] = tested on: Iron deficient Diet (IDD) induced anaemia in rats; experiment: IL-6 level in IDD induced anaemia in rats; settings: for IL-6 Post-treatment: Day 98, after 9 weeks of treatment p.o.; for IL-6 Post-treatment / IL-6 % Change compared to Disease control: IDD rats; for IL-6 % Change compared to Disease control: Day 98
Protocol: as §1, with “Jiu.” for “Jiu. 2012 January; 41(1):13-7, 22 and Nora M. El-Sheikh, the Protective Effect of Soybean and Thyme on Iron Deficiency Anemia in Rats, the Egyptian Journal of Hospital Medicine (2008) Vol., 33: 510-520 as available.”
as §2, §3, §5, §6
• A. Clinical observations (Daily) • B. Mortality (Daily) • C. Body weight (Initially and then weekly till the end of study) • D. After 3 and 5 weeks of Iron deficient diet supplement • (i) Hematological parameters (RBC count, Hb Level, Hematocrit % MCV, MCH and MCHC). • (ii) Serum Iron Level. • E. At the end of 14 weeks of study • (i) Hematological parameters (RBC count, Hb Level, Hematocrit %, MCV, MCH and MCHC). • (ii) Biochemical parameters (Serum Iron level, Ferroportin level, Serum Ferritin level, Hepcidin level, IL-6 level). Statistical Analysis: One way ANOVA followed by Tuckey's test was performed and p value<0.05 is considered to be statistically significant. […] Hematology: (after 3 Weeks and 5 Weeks of Feed Intervention and after 9 Weeks of Treatment)

[5] = tested on: Iron deficient Diet (IDD) induced anaemia in rats; experiment: Hb level in IDD induced anaemia in rats; parameters: Hemoglobin % Change compared to Disease control: concentration or dose not given beside the values; settings: for Hemoglobin Pre-treatment: Day 35, before treatment; for Hemoglobin Pre-treatment / Hemoglobin Post-treatment / Hemoglobin % Change compared to Disease control: IDD rats; for Hemoglobin Post-treatment: Day 98, after 9 weeks of treatment p.o.; for Hemoglobin % Change compared to Disease control: Day 98
Protocol: as §1, with “Jiu.” for “Jiu. 2012 January; 41(1):13-7, 22 and Nora M. El-Sheikh, the Protective Effect of Soybean and Thyme on Iron Deficiency Anemia in Rats, the Egyptian Journal of Hospital Medicine (2008) Vol., 33: 510-520 as available.”
as §2, §3
After 3 weeks of respective dietary intervention, the level of Hemoglobin was determined in each animal.
as §5, §6
• A. Clinical observations (Daily) • B. Mortality (Daily) • C. Body weight (Initially and then weekly till the end of study) • D. After 3 and 5 weeks of Iron deficient diet supplement • (i) Hematological parameters (RBC count, Hb Level, Hematocrit % MCV, MCH and MCHC). • (ii) Serum Iron Level. • E. At the end of 14 weeks of study • (i) Hematological parameters (RBC count, Hb Level, Hematocrit %, MCV, MCH and MCHC). • (ii) Biochemical parameters (Serum Iron level, Ferroportin level, Serum Ferritin level, Hepcidin level, IL-6 level).

[6] = tested on: Iron deficient Diet (IDD) induced anaemia in rats; experiment: Hematocrit % level in IDD induced anaemia in rats; parameters: Hematocrit % Change compared to Disease control: concentration or dose not given beside the values; settings: for Hematocrit Pre-treatment: Day 35, before treatment; for Hematocrit Pre-treatment / Hematocrit Post-treatment / Hematocrit % Change compared to Disease control: IDD rats; for Hematocrit Post-treatment: Day 98, after 9 weeks of treatment p.o.; for Hematocrit % Change compared to Disease control: Day 98
Protocol: as §1, §2, §3, §4
(§8) After 3 weeks of respective dietary intervention, the level of Hemoglobin was determined in each animal. Looking at low increase in hemoglobin. Hematocrit % (HCT %) level and serum iron level, further dietary intervention was continued for additional two (2) weeks.
as §5, §6, §7

[7] = tested on: Iron deficient Diet (IDD) induced anaemia in rats; experiment: Serum iron level in IDD induced anaemia in rats; parameters: Serum IRON % Change compared to Disease control: concentration or dose not given beside the values; settings: for Serum IRON Pre-treatment: Day 35, before treatment; for Serum IRON Pre-treatment / Serum IRON Post-treatment / Serum IRON % Change compared to Disease control: IDD rats; for Serum IRON Post-treatment: Day 98, after 9 weeks of treatment p.o.; for Serum IRON % Change compared to Disease control: Day 98
Protocol: as §1, §2, §3, §4, §8, §5, §6, §7

[8] = rats on iron deficient diet, after treatment for 9 weeks, compared to disease control group (G2)
[9] = rats on iron deficient diet, after treatment of 9 weeks, compared to disease control group (G2)

Nc1nc2c(ncn2[C@@H]2O[C@H](COP(=O)([O-])[O-])[C@@H](O)[C@H]2O)c(=O)[nH]1.[Na+].[Na+] [Disodium GMP, Disodium Guanosine 5-Monophosphate]
Ferroportin Post-treatment [1]: 3.0 ng/mL | Ferroportin % Change compared to Disease control [1]: 11.4% | Ferritin Post-treatment [2]: 700 ng/mL | Ferritin % Change compared to Disease control [2]: −5.4% | Hepcidin Post-treatment [3]: 4303 ng/mL | Hepcidin % Change compared to Disease control [3]: −2.2% | IL-6 Post-treatment [4]: 62.9 pg/mL | IL-6 % Change compared to Disease control [4]: 0.9%

Nc1nc2c(ncn2[C@@H]2O[C@H](COP(=O)([O-])[O-])[C@@H](O)[C@H]2O)c(=O)[nH]1.[Na+].[Na+] [Disodiurn GMP]
Hemoglobin Pre-treatment [5]: 8.54 g/dL | Hemoglobin Post-treatment [5]: 9.18 g/dL | Hemoglobin % Change compared to Disease control [5]: 40.8% | Hematocrit Pre-treatment [6]: 35.35% | Hematocrit Post-treatment [6]: 38.89% | Hematocrit % Change compared to Disease control [6]: 51.3% | Serum IRON Pre-treatment [7]: 2.82 ppm | Serum IRON Post-treatment [7]: 3.43 ppm | Serum IRON % Change compared to Disease control [7]: 28.8%

O=S(=O)([O-])[O-].[Fe+2] [FeSO4, ferrous sulphate, reference compound]
Hemoglobin Pre-treatment [5]: 8.71 g/dL | Hemoglobin Post-treatment [5]: 15.2 g/dL | Hemoglobin % Change compared to Disease control [5]: 134.0% | Hb level [5, 8]: significant increment | Hematocrit Pre-treatment [6]: 35.10% | Hematocrit Post-treatment [6]: 47.22% | Hematocrit % Change compared to Disease control [6]: 83.7% | % Hematocrit level [6, 8]: significant increment | Serum IRON Pre-treatment [7]: 2.43 ppm | Serum IRON Post-treatment [7]: 9.84 ppm | Serum IRON % Change compared to Disease control [7]: 269.2% | Serum Iron level [7, 8]: significant increase | Ferroportin Post-treatment [1]: 3.0 ng/mL | Ferroportin % Change compared to Disease control [1]: 12.5% | Ferroportin level [1, 9]: no significant change | Ferritin Post-treatment [2]: 720 ng/mL | Ferritin % Change compared to Disease control [2]: −2.7% | Serum Ferritin level [2, 9]: no significant change | Hepcidin Post-treatment [3]: 4260 ng/mL | Hepcidin % Change compared to Disease control [3]: −3.2% | Hepcidin level [3, 9]: no significant change | IL-6 Post-treatment [4]: 60.4 pg/mL | IL-6 % Change compared to Disease control [4]: −3.2% | IL-6 level [4, 9]: no significant change

Nc1nc2c(ncn2[C@@H]2O[C@H](COP(=O)(O)OP(=O)(O)O)[C@@H](O)[C@H]2O)c(=O)[nH]1 [GDP, Guanosine diphosphate]
Hemoglobin Pre-treatment [5]: 8.62 g/dL | Hemoglobin Post-treatment [5]: 9.34 g/dL | Hemoglobin % Change compared to Disease control [5]: 43.4% | Hematocrit Pre-treatment [6]: 35.61% | Hematocrit Post-treatment [6]: 37.77% | Hematocrit % Change compared to Disease control [6]: 46.9% | Serum IRON Pre-treatment [7]: 3.30 ppm | Serum IRON Post-treatment [7]: 3.99 ppm | Serum IRON % Change compared to Disease control [7]: 49.7% | Ferroportin Post-treatment [1]: 3.0 ng/mL | Ferroportin % Change compared to Disease control [1]: 11.1% | Ferritin Post-treatment [2]: 702 ng/mL | Ferritin % Change compared to Disease control [2]: −5.1% | Hepcidin Post-treatment [3]: 4351 ng/mL | Hepcidin % Change compared to Disease control [3]: −1.1% | IL-6 Post-treatment [4]: 62.2 pg/mL | IL-6 % Change compared to Disease control [4]: −0.3%
